# Tested on: Pyrenophora teres
# Assay: activity against net blotch of barley caused by Pyrenophora teres, 5 day protective application
# Assay type: in vivo, Pyrenophora [syn. Drechslera] teres on barley seedlings
# Conditions: individual active compound, untreated control 90% infection
# Description: The active compounds, separately or jointly, were prepared as a stock solution comprising 25 mg of active compound which was made up to 10 ml using a mixture of acetone and/or DMSO and the emulsifier Uniperol® EL (wetting agent having an emulsifying and dispersing action based on ethoxylated alkylphenols) in a ratio by volume of solvent/emulsifier of 99:1. The mixture was then made up to 100 ml with water. This stock solution was diluted with the solvent/emulsifier/water mixture described to give the concentration of active compound stated below. Alternatively, the active compounds were employed as a commercial finished formulation and diluted with water to the stated concentration of active compound.
# Use example—activity against net blotch of barley caused by Pyrenophora teres, 5 day protective application.
# Leaves of potted barley seedlings were sprayed to runoff point with an aqueous suspension having the concentration of active compound stated below. 5 days after the application, the test plants were inoculated with an aqueous spore suspension of Pyrenophora [syn. Drechslera] teres, the net blotch pathogen. The test plants were then placed in a greenhouse at temperatures between 20 and 24° C. and 95 to 100% relative atmospheric humidity. After 6 days, the extent of the development of the disease was determined visually in % infection of the total leaf area.
# The visually determined percentages of infected leaf areas were converted into efficacies in % of the untreated control:
# The efficacy (E) is calculated as follows using Abbot's formula:
# E=(1−α/β)·100 • α corresponds to the fungal infection of the treated plants in % and • β corresponds to the fungal infection of the untreated (control) plants in %
# An efficacy of 0 means that the infection level of the treated plants corresponds to that of the untreated control plants; an efficacy of 100 means that the treated plants were not infected.
# The expected efficacies of mixtures of active compounds were determined using Colby's formula (Colby, S. R. “Calculating synergistic and antagonistic responses of herbicide combinations”, Weeds, 15, 20-22, 1967) and compared with the observed efficacies.
# E=x+y−x·y/100 • E expected efficacy, expressed in % of the untreated control, when the using the mixture of the active compounds A and B at the concentrations a and b • x efficacy, expressed in % of the untreated control, when using the active compound A at the concentration a • y efficacy, expressed in % of the untreated control, when using the active compound B at the concentration b
SMILES,Efficacy in % of the untreated control (0.25 ppm in the spray liquor) [%],Efficacy in % of the untreated control (1 ppm in the spray liquor) [%],Efficacy in % of the untreated control (4 ppm in the spray liquor) [%]
"CC1CCN(c2c(-c3c(F)cc(F)cc3F)c(Cl)nc3ncnn23)CC1 [I, 5-chloro-7-(4-methylpiperidin-1-yl)-6-(2,4,6-trifluorophenyl)[1,2,4]triazolo[1,5-a]pyrimidine]",0,0,33
"CC(C)CC(C)c1sccc1NC(=O)c1cn(C)nc1C(F)(F)F (stereo not drawn) [IIA.11, penthiopyrad]",0,33,56
